Data set [1] concerns 32D cl 3 cells. The data set can be described thus: Clonogenic radiation survival curves of 32D cl 3 cells (PLDR study). It is filed as cell-based, mouse. The arrangement: key to D0: D0 in Gy, from single-hit multitarget model. How it is done:
32D cl 3 cells were resuspended at 1×10^5 cells/mL in 10×100-mm tubes and divided into three groups: radiation only, post-irradiation treatment with 10 μM JP4-039, and post-irradiation treatment with 10 μM TEMPO. Cells were irradiated to doses ranging from 0 to 8 Gy and were plated immediately after irradiation.
32D cl 3 cells were resuspended at 5×10^5 cells/mL in 10×100-mm tubes and divided into three groups: radiation only, post-irradiation treatment with 10 μM JP4-039, and post-irradiation treatment with 10 μM TEMPO. Cells were irradiated to doses ranging from 0 to 8 Gy and were then incubated in exponentially growing colonies (flasks) for 24, 48 and 72 h in a high-humidity incubator at 37° C. with 95% air/5% CO2.
32D cl 3 cells were resuspended at 5×10^5 cells/mL in 10×100-mm tubes. Cells were irradiated to doses ranging from 0 to 8 Gy and were then centrifuged at 1500 RPM for 10 minutes and incubated in vertical tubes held tight in pellets with a total of 5×10^5 cells/pellet for 24, 48 and 72 h in a high-humidity incubator at 37° C. with 95% air/5% CO2.
Cells incubated under either logarithmic or PLDR conditions were resuspended at 24, 48 and 72 h after irradiation, and cell viability was assessed using an automated cell viability counter (Beckman Coulter, Fullerton, Calif.). Subsequently, at 24, 48, 72 h, cells in pellets and flasks were resuspended and treated with 10 μM JP4-039, 10 μM TEMPO, or no treatment and were plated in triplicate in semisolid methylcellulose-containing medium at viable cell concentrations ranging from 500-40,000 cells/mL. Cells were incubated in a high-humidity incubator at 37° C. with 95% air/5% CO2 for 7 d and colonies of greater than 50 cells were scored according to published methods (Epperly M W, Gretton J E, Sikora C A, Jefferson M, Bernarding M, Nie S, et al.: Mitochondrial localization of superoxide, dismutase is required for decreasing radiation-induced cellular damage. Radiat Res. 160: 568-578, 2003).
Data from radiation survival curves were analyzed using the linear-quadratic and single-hit, multitarget models (Epperly M, et al., Prevention of late effects of irradiation lung damage by manganese superoxide dismutase gene therapy. Gene Ther. 5: 196-208, 1998). Results are presented as the mean±standard error of the mean from at least three measurements. Student's t test and two-way ANOVA were used to compare means of different groups where appropriate.

The test system of data set [2] is 32D cl 3 cells. The data set is described as follows: EPR-based analysis of nitroxide distribution and partitioning in subcellular fractions. Type of data set: cell-based, mouse. As to conditions: flask or pelleted, 10 μM, 1 h. How it is done: To determine nitroxide partitioning and distribution in subcellular compartments, electron paramagnetic resonance (EPR) was utilized. 32D cl 3 cells were incubated for 24 h under pelleted or flask growth conditions. After incubation, 150×10^6 cells were resuspended at a concentration of 10×10^6 cells/mL and were treated with 10 μM JP4-039 or 10 μM TEMPO for 1 h (Wipf P, et al., Mitochondrial targeting of selective electron scavengers: synthesis and biological analysis of hemigramicidin-TEMPO conjugates. J Am Chem. Soc. 127: 12460-12461, 2005).
Subcellular compartments were isolated by differential centrifugation. Cells were centrifuged at 1500 RPM for 10 min and the supernatant (media) was removed. The remaining whole cell pellet was washed with cold PBS, resuspended in 0.3 mL of hypotonic buffer solution, and incubated on ice for 45 min. Cells were then lysed by three rapid freeze-thaw cycles in liquid nitrogen for 30 sec and water at 25° C. for 3 min. Lysed cells were centrifuged at 3000×g for 5 min to isolate nucleus and cellular debris. Supernatant was centrifuged at 12000×g for 45 min to isolate mitochondria from cytoplasm (Wipf P, et al., Mitochondrial targeting of selective electron scavengers: synthesis and biological analysis of hemigramicidin-TEMPO conjugates. J Am Chem. Soc. 127: 12460-12461, 2005).
Each cellular fraction (media, whole cell pellet, nucleus/cellular debris, mitochondria, and cytoplasm) was mixed with DMSO (1:1 vol/vol) and 2 mM of potassium ferricyanide (K3Fe(CN)6) to convert […] to EPR-detectable radical forms (Behringer W, et al., Antioxidant Tempol enhances hypothermic cerebral preservation during prolonged cardiac arrest in dogs. J Cereb Blood Flow Metab. 22: 105-117, 2002). 70 μL of the homogenate was loaded into Teflon tubing (0.8 mm internal diameter) (Alpha Wire Corp., Elizabeth, N.J.) which was folded in half and placed into an open ESR quartz tube (inner diameter of 3.0 mm). EPR measurements were made in triplicate using a JEOL-RE1X EPR spectrometer (Jeol, Tokyo, Japan) under the following conditions: 334.7 mT center field, 5 mT sweep width, 0.079 mT field modulation, 20 mW microwave power, 0.1 sec time constant, and 2 min scan time at 22.5° C. Utilizing signal magnitude and isolated volumes, amount and concentration of JP4-039 or TEMPO were calculated for each sample.

Another data set relates to Ercc1−/Δ mice. As to conditions: parental compound, comparison statement; cited from earlier work.
Setting [3] is: 0 hours, 10 μM post-irradiation.

As to `CC1(C)CCCC(C)(C)N1[O]` [TEMPO, 2,2,6,6-tetramethylpiperidine-N-oxyl, reference compound], the D0 in the data set on 32D cl 3 cells [1] (setting [3]) came to 1.04 ± 0.07; with 32D cl 3 cells [1] (24 hours (Flask), 10 μM), 1.26 ± 0.11; with 32D cl 3 cells [1] (24 hours (Pellet), 10 μM), 1.13 ± 0.19. Moreover, the Ñ was 8.23±4.35 in the data set on 32D cl 3 cells [1] (setting [3]); 8.86 ± 6.69 in the data set on 32D cl 3 cells [1] (24 hours (Flask), 10 μM); 7.59±1.71 with 32D cl 3 cells [1] (24 hours (Pellet), 10 μM). In addition, in the data set on 32D cl 3 cells [1] (48 or 72 h after irradiation), the radiation mitigation result is recorded as “no statistically significant radiation mitigation”. The “nitroxide signal in whole cell pellet and subcellular fractions” value with 32D cl 3 cells [2] is given as “below the detectable threshold”. The body weight entry in the data set on Ercc1−/Δ mice is “cause weight loss”.

These data come from US8822541B2, “Use of targeted nitroxide agents in mitigating or treating radiation injury” (University of Pittsburgh—Of the Commonwealth System of …, priority 2008, dated 2014).
